Laboratory results taken from patent publication US7138361B2, “Herbicidal heterocycles” (E. I. du Pont de Nemours and Company, priority 2000, dated 2006).

Assays:
Type in all cases: in vivo
[1] = tested on: smallflower flatsedge (Cyperus difformis); experiment: Test C flooded paddy test; conditions: for Flatsedge plant response rating: Flooded Paddy, scale 0 to 100, 0 no effect, 100 complete control; for Plant response rating, Flatsedge: flooded paddy test, scale 0 to 100 (0 no effect, 100 complete control)
How it was run: (§1)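 Greenhouse-maintained for 12 to 14 days after treatment, the paddy plants (2-leaf stage at application) were scored visually against controls. A score of 0 denotes no effect and a score of 100 denotes complete control.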

[2] = tested on: barnyardgrass (Echinochloa crus-galli); experiment: Test C flooded paddy test; conditions: for Barnyardgrass plant response rating: Flooded Paddy, scale 0 to 100, 0 no effect, 100 complete control; for Plant response rating, Barnyardgrass: flooded paddy test, scale 0 to 100 (0 no effect, 100 complete control)
How it was run: as §1

[3] = tested on: duck salad (Heteranthera limosa); experiment: Test C flooded paddy test; conditions: for Ducksalad plant response rating: Flooded Paddy, scale 0 to 100, 0 no effect, 100 complete control; for Plant response rating, Ducksalad: flooded paddy test, scale 0 to 100 (0 no effect, 100 complete control)
How it was run: as §1

[4] = tested on: woolly cupgrass (Eriochloa villosa); experiment: Test C preemergence
How it was run: (§2)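 Each compound was dissolved in a non-phytotoxic solvent system containing a surfactant and sprayed either on freshly planted seeds (preemergence) or on young plants, 2 to 18 cm high (postemergence). Ratings after 12 to 14 greenhouse days ran from 0, no effect, to 100, complete control.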

[5] = tested on: goosegrass (Eleusine indica); experiment: Test C preemergence
How it was run: as §2

[6] = tested on: velvetleaf (Abutilon theophrasti); experiment: Test C preemergence
How it was run: as §2

[7] = tested on: morningglory (Ipomoea hederacea); experiment: Test C preemergence
How it was run: as §2

[8] = tested on: giant foxtail (Setaria faberii); experiment: Test C preemergence
How it was run: as §2

[9] = tested on: cocklebur (Xanthium strumarium); experiment: Test C preemergence
How it was run: as §2

[10] = tested on: Surinam grass (Brachiaria decumbens); experiment: Test C preemergence
How it was run: as §2

[11] = tested on: pigweed (Amaranthus retroflexus); experiment: Test C preemergence
How it was run: as §2

corn (Zea mays) = experiment: Test C preemergence
How it was run: as §2

[12] = tested on: crabgrass (Digitaria sanguinalis); experiment: Test C preemergence
How it was run: as §2

[13] = tested on: bermudagrass (Cynodon dactylon); experiment: Test C preemergence
How it was run: as §2

Nightshade = experiment: Test C preemergence
[14] = tested on: johnsongrass (Sorghum halepense); experiment: Test C preemergence
How it was run: as §2

kochia (Kochia scoparia) = experiment: Test C preemergence
How it was run: as §2

soybean (Glycine max) = experiment: Test C preemergence
How it was run: as §2

[15] = tested on: common ragweed (Ambrosia elatior); experiment: Test C preemergence
How it was run: as §2

Sunflower = experiment: Test C preemergence; conditions: Rate 125 g/ha; scale 0 to 100, 0 no effect, 100 complete control
[16] = tested on: lambsquarters (Chenopodium album); experiment: Test C preemergence
How it was run: as §2

[17] = tested on: yellow nutsedge (Cyperus esculentus); experiment: Test C preemergence
How it was run: as §2

[18] = Rate 125 g/ha, scale 0 to 100, 0 no effect, 100 complete control
[19] = preemergence, Rate 62 g/ha, scale 0 to 100
[20] = preemergence, Rate 500 g/ha, visual evaluation after 12 to 14 days
[21] = preemergence, Rate 250 g/ha, scale 0 to 100, 0 no effect, 100 complete control

CCC(C)c1ccn(C2CCN(c3cccc(OC)c3)C2=O)n1 (centres unmarked) [Compound 95]
60: Plant response rating (0 to 100), Pigweed [11, 20] | Plant response rating, Johnsongrass [14, 21]
100: Flatsedge plant response rating ([1]; Rate 250 g/ha) | Flatsedge plant response rating ([1]; Rate 500 g/ha) | Plant response rating, Flatsedge ([1]; Rate 125 g/ha) | Barnyardgrass plant response rating ([2]; Rate 250 g/ha) | Barnyardgrass plant response rating ([2]; Rate 500 g/ha) | Ducksalad plant response rating ([3]; Rate 250 g/ha) | Ducksalad plant response rating ([3]; Rate 500 g/ha) | Plant response rating, Cupgrass, Woolly [4, 18] | Plant response rating (0 to 100), Cupgrass, Woolly [4, 20] | Plant response rating, Cupgrass, Woolly [4, 21] | Plant response rating, Goosegrass [5, 18] | Plant response rating, Goosegrass [5, 19] | Plant response rating (0 to 100), Goosegrass [5, 20] | Plant response rating, Goosegrass [5, 21] | Plant response rating (0 to 100), Foxtail, Giant [8, 20] | Plant response rating (0 to 100), Surinam grass [10, 20] | Plant response rating, Pigweed [11, 19] | Plant response rating, Crabgrass [12, 18] | Plant response rating, Crabgrass [12, 19] | Plant response rating (0 to 100), Crabgrass [12, 20] | Plant response rating, Crabgrass [12, 21] | Plant response rating, Bermudagrass [13, 18] | Plant response rating, Bermudagrass [13, 19] | Plant response rating (0 to 100 where 0 is no effect and 100 is complete control), Bermudagrass [13, 20] | Plant response rating, Bermudagrass [13, 21] | Plant response rating, Kochia (kochia (Kochia scoparia); [18]) | Plant response rating, Kochia (kochia (Kochia scoparia); [19]) | Plant response rating (0 to 100), Kochia (kochia (Kochia scoparia); [20]) | Plant response rating, Kochia (kochia (Kochia scoparia); [21]) | Plant response rating, Lambsquarters [16, 18] | Plant response rating, Lambsquarters [16, 19] | Plant response rating (0 to 100), Lambsquarters [16, 20] | Plant response rating, Lambsquarters [16, 21]
0: Plant response rating, Velvetleaf [6, 18] | Plant response rating, Velvetleaf [6, 19] | Plant response rating (0 to 100), Velvetleaf [6, 20] | Plant response rating, Velvetleaf [6, 21] | Plant response rating, Morningglory [7, 18] | Plant response rating, Morningglory [7, 19] | Plant response rating (0 to 100), Morningglory [7, 20] | Plant response rating, Morningglory [7, 21] | Plant response rating, Foxtail, Giant [8, 18] | Plant response rating, Foxtail, Giant [8, 19] | Plant response rating, Foxtail, Giant [8, 21] | Plant response rating, Cocklebur [9, 18] | Plant response rating, Cocklebur [9, 19] | Plant response rating (0 to 100), Cocklebur [9, 20] | Plant response rating, Cocklebur [9, 21] | Plant response rating, Pigweed [11, 18] | Plant response rating, Pigweed [11, 21] | Plant response rating, Nightshade (Nightshade; Rate 62 g/ha, scale 0 to 100) | Plant response rating, Nightshade (Nightshade; [18]) | Plant response rating, Nightshade (Nightshade; Rate 250 g/ha, scale 0 to 100, 0 no effect, 100 complete control) | Plant response rating, Soybean (soybean (Glycine max); [18]) | Plant response rating, Soybean (soybean (Glycine max); [19]) | Plant response rating, Soybean (soybean (Glycine max); [21]) | Plant response rating, Ragweed, Common [15, 18] | Plant response rating, Ragweed, Common [15, 19] | Plant response rating, Ragweed, Common [15, 21] | Plant response rating, Sunflower (Sunflower) | Plant response rating, Nutsedge [17, 18] | Plant response rating, Nutsedge [17, 19]
70: Plant response rating, Barnyardgrass ([2]; Rate 62 g/ha) | Plant response rating, Barnyardgrass ([2]; Rate 125 g/ha) | Plant response rating, Ducksalad ([3]; Rate 62 g/ha) | Plant response rating (0 to 100), Nutsedge [17, 20]
50: Plant response rating, Cupgrass, Woolly [4, 19] | Plant response rating, Surinam grass [10, 21]
90: Plant response rating, Flatsedge ([1]; Rate 62 g/ha) | Plant response rating, Ducksalad ([3]; Rate 125 g/ha) | Plant response rating (0 to 100), Johnsongrass [14, 20]
40: Plant response rating, Surinam grass [10, 18] | Plant response rating, Surinam grass [10, 19] | Plant response rating (0 to 100), Corn (corn (Zea mays); [20]) | Plant response rating, Corn (corn (Zea mays); [21])
10: Plant response rating, Corn (corn (Zea mays); [18]) | Plant response rating, Corn (corn (Zea mays); [19]) | Plant response rating (0 to 100), Ragweed, Common [15, 20]
30: Plant response rating, Johnsongrass [14, 18] | Plant response rating, Johnsongrass [14, 19] | Plant response rating (0 to 100), Soybean (soybean (Glycine max); [20])
